In paper PMC5553892, “A fourth subtype of retinoic acid receptor-related orphan receptors is activated by oxidized all-trans retinoic acid in medaka (Oryzias latipes)” (Zoological Letters, 2017):

How the values were obtained:
Type in all cases: cell-based
RORd1 [1] = molecular target: T1, RORd1 (Oryzias latipes, UniProt H2LFF5); experiment: Gal4-RORd1 LBD luciferase reporter assay in stable HEK293 cells (agonist)
T1 construct: gene rorca
T1 sequence (H2LFF5 98-473): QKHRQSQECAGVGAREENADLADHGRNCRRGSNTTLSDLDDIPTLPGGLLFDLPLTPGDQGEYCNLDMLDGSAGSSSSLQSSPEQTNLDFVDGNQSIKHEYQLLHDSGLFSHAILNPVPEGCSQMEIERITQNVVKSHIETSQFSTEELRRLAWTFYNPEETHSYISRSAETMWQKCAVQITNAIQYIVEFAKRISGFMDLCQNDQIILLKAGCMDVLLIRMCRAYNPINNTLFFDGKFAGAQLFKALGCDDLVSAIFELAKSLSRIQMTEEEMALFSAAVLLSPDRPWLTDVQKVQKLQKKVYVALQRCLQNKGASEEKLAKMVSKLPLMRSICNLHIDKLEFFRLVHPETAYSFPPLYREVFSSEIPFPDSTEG

RORd1 [2] = molecular target: T1, RORd1; experiment: Gal4-RORd1 LBD luciferase reporter assay in stable HEK293 cells (weak agonist, […], EC50 not calculable)
RORd1 [3] = molecular target: T1, RORd1; experiment: as above; remark: listed apart in the source

Row | Compound | EC50 (RORd1 [1]) [nM] | further results
1 | CC1=C(/C=C/C(C)=C/C=C/C(C)=C/C(=O)O)C(C)(C)CCC1=O [4 K–ATRA, all-trans 4-ketoretinoic acid] | 737 ± 47.3 | –
2 | CC1=C(/C=C/C(C)=C/C=C/C(C)=C/C(=O)O)C(C)(C)CCC1O (stereo not drawn) [4OH-ATRA, all-trans 4-hydroxyretinoic acid] | 539 ± 97.3 | –
3 | CC(/C=C/C12OC1(C)CCCC2(C)C)=C\C=C\C(C)=C\C(=O)O (stereo not drawn) [5,6E–ATRA, all-trans 5,6-epoxyretinoic acid] | – | EC50 (RORd1 [2]): > 10000 nM
4 | CC1=C(/C=C/C(C)=C/C=C/C(C)=C/C(=O)O)C(C)(C)CCC1 [ATRA, all-trans retinoic acid] | – | EC50 (RORd1 [3]): > 10000 nM
